Where two headings read alike, the source gives them in different places.

Experiment [1] addresses recombinant human PIM2 (Homo sapiens (Human), UniProt Q9P1W9). Description: PIM-2 assay (33P-ATP filter binding). It is filed as biochemical. The settings on record: for PIM2: % inh […]: at […] compound.
Experimental: Test compounds dissolved and diluted in DMSO (2 μl) were added to a reaction mixture comprising 10 μl of 5× Reaction Buffer (40 mM MOPS pH 7.0, 5 mM EDTA), 10 μl of recombinant human PIM2 solution (4 ng PIM-2 dissolved in dilution buffer (20 mM MOPS pH 7.0; EDTA 1 mM; 5% Glycerol; 0.01% Brij 35; 0.1%; 0.1% 2-mercaptoethanol; 1 mg/ml BSA)) and 8 ul of water.
Experiment [2] deals with CK2 ααββ (Homo sapiens (Human), UniProt P68400). Description: CK2 assay (cell-free, 33P-ATP, phosphocellulose filter plate). It is filed as biochemical.
Experimental: Modulatory activity of compounds described herein was assessed in vitro in cell-free CK2 assays by the following method.
Reactions were maintained for 40 min at 23° C. The reactions were quenched with 100 ul of 0.75% Phosphoric acid, then transferred to and filtered through a Phosphocellulose filter plate (Millipore, MSPH-N6B-50). After washing each well 4 times with 0.75% Phosphoric acid, scintillation fluid (20 uL) was added to each well and the residual radioactivity was measured using a Wallac luminescence counter.
The target of experiment [3] is recombinant PIM-1 (Homo sapiens (Human), UniProt P11309). Description: PIM-1 assay (33P-ATP filter binding). It is filed as biochemical. As to conditions: read-out: PIM1: IC50 (30 μM ATP).
Experimental: (SEQ ID NO.: 5), 10 mM MgAcetate, 15 uM ATP, [γ-^33P-ATP] (specific activity approx. 500 cpm/pmol), DMSO 4% and test inhibitor compound at the required concentration. The reaction was initiated by the addition of the Magnesium ATP mixture. After 40 min incubation at 23° C., the reactions were quenched by the addition of 100 ul 0.75% Phosphoric acid, and the labeled peptide collected by filtration through a phosphocellulose filter plate. The plate was washed 4 times with 0.075% phosphoric acid (100 ul per well) and then, after the addition of scintillation fluid (20 ul per well), the counts were measured by a scintillation counter.
For experiment [4], the system named is BxPC3 human pancreatic adenocarcinoma cells. In words: Cell proliferation assay with Alamar Blue (AB), BxPC3. In kind it is cell-based. The procedure, abridged:
(§1)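 4,000–5,000 cells per well were exposed to compound for four days at 37° C, 5% CO2. Alamar Blue was then added for four hours, and fluorescence was read at 544 nm excitation / 590 nm emission.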
For orientation: Alamar Blue is a resazurin reagent that responds to reducing activity.

The subject of experiment [5] is MDAMB453. Description: Cell proliferation assay with Alamar Blue (AB), MDAMB453. In kind it is cell-based. The procedure, abridged:
as §1

Setting [6] is: PIM2: IC50 (5 μM ATP), 5 μM ATP.
Setting [7] is: Homo sapiens, BXPC-3, read-out: AB: BxPC3.
[8] abbreviates: Homo sapiens, MDA-MB-453, MDAMB453 cells, read-out: AB: MDAMB453.
[9] abbreviates: MDAMB453 cells, read-out: AB: MDAMB453 IC50.

Chain of CK2 ααββ (P68400 whole entry): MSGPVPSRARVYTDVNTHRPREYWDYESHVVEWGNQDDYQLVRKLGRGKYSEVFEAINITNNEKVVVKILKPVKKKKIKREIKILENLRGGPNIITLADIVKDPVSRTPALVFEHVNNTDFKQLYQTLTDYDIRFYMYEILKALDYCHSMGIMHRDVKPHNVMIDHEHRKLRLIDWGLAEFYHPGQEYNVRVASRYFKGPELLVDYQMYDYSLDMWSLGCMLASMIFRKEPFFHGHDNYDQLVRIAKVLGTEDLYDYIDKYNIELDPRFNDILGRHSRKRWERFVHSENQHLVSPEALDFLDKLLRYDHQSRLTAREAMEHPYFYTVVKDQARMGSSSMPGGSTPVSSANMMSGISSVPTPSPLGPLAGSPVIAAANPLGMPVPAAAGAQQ
Chain of CK2 ααββ (P67870 whole entry partner): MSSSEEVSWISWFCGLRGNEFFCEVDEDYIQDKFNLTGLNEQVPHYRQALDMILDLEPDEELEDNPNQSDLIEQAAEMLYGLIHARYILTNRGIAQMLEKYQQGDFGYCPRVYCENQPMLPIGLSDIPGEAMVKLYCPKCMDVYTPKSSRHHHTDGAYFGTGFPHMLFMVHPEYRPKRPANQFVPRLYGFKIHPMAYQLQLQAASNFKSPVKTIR
Chain of recombinant PIM-1 (P11309 whole entry): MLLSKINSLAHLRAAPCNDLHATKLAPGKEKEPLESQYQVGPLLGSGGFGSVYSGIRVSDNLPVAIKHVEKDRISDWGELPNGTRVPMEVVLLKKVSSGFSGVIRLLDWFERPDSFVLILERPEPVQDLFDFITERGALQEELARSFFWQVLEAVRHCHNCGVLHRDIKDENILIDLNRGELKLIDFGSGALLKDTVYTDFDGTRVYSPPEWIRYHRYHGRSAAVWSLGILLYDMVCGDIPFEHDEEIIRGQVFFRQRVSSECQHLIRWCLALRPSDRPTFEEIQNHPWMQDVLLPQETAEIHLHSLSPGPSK
Chain of recombinant human PIM2 (Q9P1W9 whole entry): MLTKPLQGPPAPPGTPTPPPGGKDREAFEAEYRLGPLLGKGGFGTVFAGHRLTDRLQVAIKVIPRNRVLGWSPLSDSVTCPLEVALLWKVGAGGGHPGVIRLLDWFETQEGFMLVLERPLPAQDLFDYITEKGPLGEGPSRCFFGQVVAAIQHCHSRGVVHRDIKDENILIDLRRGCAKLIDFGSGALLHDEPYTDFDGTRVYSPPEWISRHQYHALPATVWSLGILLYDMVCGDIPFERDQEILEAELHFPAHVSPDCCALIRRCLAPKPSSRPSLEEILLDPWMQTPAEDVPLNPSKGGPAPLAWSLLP

Turning to `CN1CCC(N(C)c2cc(NC3CC3)n3ncc(/C=C4\SC(=O)NC4=O)c3n2)C1` (stereo not shown) [Example M3], the values for the IC50 in experiment [1] (setting [6]), in experiment [2] and in experiment [3] were 1440 nM, less than 100 nM and 1450 nM, respectively.
For `CCN(CC)c1cc(NC2CC2)n2ncc(/C=C3\SC(=O)NC3=O)c2n1` [Example L3], the IC50 in experiment [1] (setting [6]) is 1430 nM; in experiment [2], less than 1000 nM; in experiment [3] it was greater than 2500 nM.
Regarding `O=C1NC(=O)/C(=C/c2cnn3c(NC4CC4)cc(NCCF)nc23)S1` [Example N3], the IC50 in experiment [1] (setting [6]) was greater than 2500 nM; in experiment [2], less than 1000 nM; in experiment [3], greater than 2500 nM.
With `CC(C)CNc1cc(NC2CC2)n2ncc(/C=C3\SC(=O)NC3=O)c2n1` [Example F3], the values for the IC50 in experiment [1] (setting [6]), in experiment [2] and in experiment [3] were 1640 nM, less than 1000 nM and 2060 nM, respectively.
As for `O=C1NC(=O)/C(=C/c2cnn3c(NC4CC4)cc(Nc4cccc(Cl)c4)nc23)S1` [Example J3], the results for the IC50 in experiment [1] (setting [6]), in experiment [2] and in experiment [3] were greater than 2500 nM, less than 1000 nM and greater than 2500 nM, respectively.
Take `CCN1CCCC1CNc1cc(NC2CC2)n2ncc(/C=C3\SC(=O)NC3=O)c2n1` (stereo not shown) [Example G3]: the IC50 is 1850 nM in experiment [1] (setting [6]); less than 100 nM in experiment [2]; 9450 nM in experiment [4] (setting [7]); 2060 nM in experiment [3]; 7700 nM in experiment [5] (setting [8]).
Regarding `O=C1NC(=O)/C(=C/c2cnn3c(NC4CC4)cc(N4CCOCC4)nc23)S1` [Example K3], the IC50 in experiment [1] (setting [6]) is 1390 nM; in experiment [2] it was less than 1000 nM; in experiment [3] it was 918 nM.
With `CC(O)CNc1cc(NC2CC2)n2ncc(/C=C3\SC(=O)NC3=O)c2n1` (stereo not shown) [Example H3], the IC50 is greater than 2500 nM in experiment [1] (setting [6]), less than 1000 nM in experiment [2] and 2390 nM in experiment [3].
For `CN(C)c1cc(NC2CC2)n2ncc(/C=C3\SC(=O)NC3=O)c2n1` [Example I3] the same measures were 876 nM, less than 100 nM and greater than 2500 nM.
For `CN(c1cccc(-c2cc(NC3CC3)n3ncc(/C=C4\NC(=O)NC4=O)c3n2)c1)S(C)(=O)=O` [Example B5], the IC50 in experiment [1] (setting [6]) is greater than 2500 nM; in experiment [2], less than 10 nM; in experiment [4] (setting [7]) it was 5430 nM; in experiment [5] (setting [8]) it was 26700 nM.
Take `CN1C(=O)S/C(=C\c2cnn3c(NC4CC4)cc(Nc4cccc(Cl)c4)nc23)C1=O` [Example P3]: the IC50 in experiment [1] (setting [6]) is greater than 2500 nM; in experiment [2], less than 1000 nM; in experiment [3], greater than 2500 nM.
As to `O=C1NC(=O)/C(=C/c2cnn3c(NC4CCNCC4)cc(Nc4cccc(Cl)c4)nc23)N1` [Example K5], the IC50 in experiment [1] (setting [6]) is 2450 nM; in experiment [2], less than 100 nM; in experiment [4] (setting [7]) it was 11000 nM; in experiment [5] (setting [8]), 1080 nM.
On to `CC(C)(C)OC(=O)N1CCN(C(=O)c2cccc(Nc3cc(Nc4cccc(Cl)c4)nc4c(/C=C5\NC(=O)NC5=O)cnn34)c2)CC1` [Example E7], for which the IC50 is 2020 nM in experiment [1] (setting [6]), less than 10 nM in experiment [2], 3010 nM in experiment [4] (setting [7]) and 364 nM in experiment [5] (setting [8]).
Turning to `CCS(=O)(=O)Nc1cccc(-c2cc(NC3CC3)n3ncc(/C=C4\NC(=O)NC4=O)c3n2)c1` [Example X4], the IC50 in experiment [1] (setting [6]) is 1730 nM; in experiment [2] it was less than 10 nM; in experiment [4] (setting [7]) it was greater than 30000 nM; in experiment [5] (setting [8]), greater than 30000 nM.
In the case of `O=C1NC(=O)/C(=C/c2cnn3c(NC4CC4)cc(SCc4ccccc4)nc23)N1`, the IC50 was greater than 2500 nM in experiment [1] (5 um ATP, read-out: PIM2: IC50 (5 um ATP)); less than 10 nM in experiment [2]; 11000 nM in experiment [4] (setting [7]); greater than 30000 nM in experiment [5] (setting [8]).
Take `O=C1NC(=O)/C(=C/c2cnn3c(NC4CC4)cc(NC4CCCC4)nc23)N1` [Example O2]: the IC50 in experiment [1] (setting [6]) is greater than 2500 nM; in experiment [2], less than 10 nM; in experiment [4] (setting [7]), 10400 nM; in experiment [5] (setting [8]), 4510 nM.
As for `COC(=O)Nc1cc(NC2CC2)n2ncc(/C=C3\NC(=O)NC3=O)c2n1` [Example N2], the IC50 in experiment [1] (setting [6]) was 845 nM; in experiment [2] it was less than 10 nM; in experiment [4] (setting [7]) it was 9180 nM; in experiment [5] (setting [8]), 3040 nM.
The corresponding values for `COC(=O)c1cccc(-c2cc(NC3CC3)n3ncc(/C=C4\NC(=O)NC4=O)c3n2)c1` [Example W3] are greater than 2500 nM, less than 10 nM, 2050 nM and 1710 nM.
The corresponding values for `CN(C)C1CCN(C(=O)c2cccc(Nc3cc(Nc4cccc(Cl)c4)nc4c(/C=C5\NC(=O)NC5=O)cnn34)c2)C1` (stereo not shown) [Example C7] are 1440 nM, less than 10 nM, greater than 30000 nM and 6440 nM.
Consider `O=C1NC(=O)/C(=C/c2cnn3c(NC4CC4)cc(-c4ccncc4)nc23)N1` [Example Q4], for which the IC50 is 256 nM in experiment [1] (setting [6]), less than 10 nM in experiment [2], 745 nM in experiment [4] (setting [7]) and 1070 nM in experiment [5] (setting [8]).
For the compound `CN1C(=O)NC(=Cc2cnn3c(NC4CC4)cc(Nc4ccccc4F)nc23)C1=O` [Example F42], the “PIM2: % inh […]” value in experiment [1] was −17.549%. Also, the IC50 in experiment [2] was less than 100 nM; in experiment [4] (read-out: AB: BxPC3 IC50), greater than 30000 nM; in experiment [5] (setting [9]), 29100 nM.
`O=C1NC(=O)/C(=C/c2cnn3c(NC4CC4)cc(Nc4ccc(F)cc4Cl)nc23)N1` [Example L1]: the IC50 in experiment [1] (setting [6]) was greater than 2500 nM; in experiment [2], less than 10 nM; in experiment [4] (setting [7]), 1350 nM; in experiment [5] (setting [8]), 500 nM.
In the case of `O=C1NC(=O)C(=Cc2cnn3c(NC4CC4)cc(Nc4ccc(OCCN5CCOCC5)cc4F)nc23)N1` [Example S42], the “PIM2: % inh […]” value in experiment [1] turned out to be 44.49%. Moreover, the IC50 in experiment [2] is less than 10 nM; in experiment [4] (read-out: AB: BxPC3 IC50), 5000 nM; in experiment [5] (setting [9]), 2740 nM.
As for `O=C1NC(=O)/C(=C/c2cnn3c(NC4CC4)cc(-c4cccnc4)nc23)N1` [Example U4], the IC50 in experiment [1] (setting [6]) was greater than 2500 nM; in experiment [2], less than 10 nM; in experiment [4] (setting [7]), 8130 nM; in experiment [5] (setting [8]) it was 1260 nM.
The corresponding values for `COC(=O)CN1CCC(Nc2cc(Nc3cccc(Cl)c3)nc3c(/C=C4\NC(=O)NC4=O)cnn23)CC1` [Example O5] are 2410 nM, less than 100 nM, 4260 nM and 1120 nM.
For `CS(=O)(=O)c1cccc(-c2cc(NC3CC3)n3ncc(/C=C4\NC(=O)NC4=O)c3n2)c1` [Example X3] the same measures were greater than 2500 nM, less than 10 nM, 13100 nM and 517 nM.
Regarding `CN(C)CCCOc1cccc(-c2cc(NC3CC3)n3ncc(/C=C4\NC(=O)NC4=O)c3n2)c1` [Example Z3], the IC50 in experiment [1] (setting [6]) was 2210 nM; in experiment [2], less than 10 nM; in experiment [4] (setting [7]), 2920 nM; in experiment [5] (setting [8]) it was 284 nM.
For `C=CCOc1cccc(-c2cc(NC3CC3)n3ncc(/C=C4\NC(=O)NC4=O)c3n2)c1` [Example E4] the same measures were greater than 2500 nM, less than 10 nM, 11800 nM and 1170 nM.
On to `O=C1NC(=O)/C(=C/c2cnn3c(NC4CC4)cc(Nc4ccc(Cl)c(C(F)(F)F)c4)nc23)N1` [Example H1], for which the IC50 in experiment [1] (setting [6]) is greater than 2500 nM; in experiment [2], less than 10 nM; in experiment [4] (setting [7]), 3210 nM; in experiment [5] (setting [8]) it was 991 nM.
In the case of `O=C1NC(=O)/C(=C/c2cnn3c(NCC4CC4)cc(NN4CCOCC4)nc23)N1` [Example Q2], the IC50 is 284 nM in experiment [1] (setting [6]), less than 10 nM in experiment [2], 5370 nM in experiment [4] (setting [7]) and 154 nM in experiment [5] (setting [8]).
